Where two headings read alike, the source gives them in different places.
What was measured:
PKC-gamma_h = target: T1, PKC-gamma_h (Homo sapiens, UniProt P05129); assay: SelectScreen kinase assay; assay type: biochemical; conditions: KM ATP
T1 construct: purchased Life Technologies (Invitrogen) SelectScreen, Z'-LYTE / Adapta
Description: (§1) Syk kinase mode of inhibition studies, including parameters described in Fig 1, were conducted on the LC3000 platform by Caliper Life Sciences (Hopkinton, MA) according to standard protocols developed by the supplier. […] Non-kinase enzyme assays and GPCR, ion channel, and transporter binding assays were run by CEREP (France). Non-GLP manual patch clamp hERG assays were run by ChanTest (Cleveland, Ohio). Vivid® Assay kits (Life Technologies) were used to measure the cytochrome P450 inhibition of the compound against CYP3A, CYP2C9, CYP2C19, CYP2D6, and CYP1A2, as described.
(§2) Kinase activity was measured using either the Z’-Lyte® or the Adapta® protocols as part of the SelectScreen™ profiling service offered at Life Technologies (Grand Island, NY). For the single point measurements (Part A), CC-509 was kept constant at 3 µM while ATP concentrations [ATP] used were at the KM for ATP (KM ATP) for that specific enyzme, at 10 or 100 µM ATP (10 ATP or 100 ATP, respectively), as indicated. Values expressed as percent control (% control) relative to DMSO-only wells (uninhibited, 100%).
(§3) Kinase activity was measured using either the Z’-Lyte® or the Adapta® protocols as part of the SelectScreen™ profiling service offered at Life Technologies (Grand Island, NY). […] Values expressed as percent control (% control) relative to DMSO-only wells (uninhibited, 100%).

TSSK2_h = target: T2, TSSK2_h (Homo sapiens, UniProt Q96PF2); assay: SelectScreen kinase assay; assay type: biochemical; conditions: KM ATP
T2 construct: purchased Life Technologies (Invitrogen) SelectScreen, Z'-LYTE / Adapta
Description: as §1, §2, §3

[1] = tested on: FcγR-induced TNFα production in primary human macrophage; assay: primary human macrophage assay, anti-IgG stimulated TNF secretion; assay type: cell-based
Description: Mobilized CD14-positive monocytes were plated in 96-well flat bottom plates in RPMI media supplemented with 100 ng/ml GM-CSF for 5 days. The plates were preincubated with CC-509 at indicated concentrations for 30 minutes. Biotinylated anti-IgG and streptavidin at 10 μg/ml final concentrations were thoroughly mixed, added to appropriate wells on the cell plate, and plate placed back in tissue culture incubator 8 hours. Following incubation, supernatants were collected and processed for TNFα Mesoscale single-plex cytokine assay as described by manufacturer (Mesoscale, Gaithersberg, MD). Briefly, the plates were incubated with sample or calibrator for 2 hours on an orbital shaker at room temperature. The detection antibody was added to all wells, the plate incubated for 2 hours at room temperature on an orbital shaker, and washed three times. Diluted Mesoscale detection solution was added to all wells and the plates were read on the Sector Imager instrument (Mesoscale, Gaithersberg, MD) plate reader.
For the TEL-Syk assay, the intensity values for the 700 and 800 channel were exported as text files in ActivityBase (IDBS, Guildford, UK) to derive the ratios that reflect kinase activity. For LAD2 experiments, enzyme activity values were exported as text files into ActivityBase to calculate “percent release” according to the formula: 100* supernatant OD405/ (supernatant OD405 + (pellet OD405*pellet dilution factor)). For the basophil and B-cells assays, flow cytometry data was exported from the FACS Array and processed using FloJo software package (TreeStar, Inc., Ashland, Oregon). For the JAK2 HEL and Ramos NFAT β-lactamase assays, the fluorescence values obtained at 460 nm and 530 nm were exported into ActivityBase to calculate response ratios. […] Evans blue dye extravasation was expressed as mean ± SEM and % inhibition for the test article groups was normalized to the cromolyn positive control. […] The mean data from each group was plotted and either the AUC(day 11–18) or % inhibition on day 18 was calculated. Data is expressed as mean ± SEM of each group with n = 6–12. […]

[2] = tested on: primary human neutrophils; assay: primary human neutrophils, opsonized zymosan-stimulated superoxide release; assay type: cell-based; conditions: opsonized zymosan stimulation, read-out: IC50, release of superoxide anions
Description: Cells were purified from EDTA-treated human whole blood using Polymorphprep (VWR, Radnor, PA) according to the protocol provided by the supplier. Eosinophils were further purified using an Eosinophil Kit (Miltenyi, Auburn, CA) according to manufacturer’s instructions. Neutrophil and eosinophil cell pellets were incubated in phenol red-free RPMI (Life Technologies, Grand Island, NY) for 30 minutes, washed in Kreb’s Ringer buffer, and plated in 96-well white opaque plates (Perkin Elmer, Foster City, CA) for luminescence. […] Neutrophils were activated with 0.5 mg/mL final concentration of opsonized zymosan, incubated for 30 minutes at room temperature in the dark, and then read on an Envision 2104 Multilabel Reader (Perkin Elmer, Foster City, CA). […] For eosinophils, cells were stimulated with IL-3 (200 pM, R&D Systems, Minneapolis, MN) for 24 hours at which point supernatants were collected and assessed for MCP-1 (Mesoscale).
For the TEL-Syk assay, the intensity values for the 700 and 800 channel were exported as text files in ActivityBase (IDBS, Guildford, UK) to derive the ratios that reflect kinase activity. […] For the JAK2 HEL and Ramos NFAT β-lactamase assays, the fluorescence values obtained at 460 nm and 530 nm were exported into ActivityBase to calculate response ratios. […] The mean data from each group was plotted and either the AUC(day 11–18) or % inhibition on day 18 was calculated. […]

panel of 256 kinases = assay: commercial panel of 256 kinases (SelectScreen), overall kinome selectivity; assay type: biochemical; conditions: for number of kinases inhibited by >80% of 256 kinases: 3 μM
Description: as §1, §2, §3

T2 sequence (Q96PF2 whole entry): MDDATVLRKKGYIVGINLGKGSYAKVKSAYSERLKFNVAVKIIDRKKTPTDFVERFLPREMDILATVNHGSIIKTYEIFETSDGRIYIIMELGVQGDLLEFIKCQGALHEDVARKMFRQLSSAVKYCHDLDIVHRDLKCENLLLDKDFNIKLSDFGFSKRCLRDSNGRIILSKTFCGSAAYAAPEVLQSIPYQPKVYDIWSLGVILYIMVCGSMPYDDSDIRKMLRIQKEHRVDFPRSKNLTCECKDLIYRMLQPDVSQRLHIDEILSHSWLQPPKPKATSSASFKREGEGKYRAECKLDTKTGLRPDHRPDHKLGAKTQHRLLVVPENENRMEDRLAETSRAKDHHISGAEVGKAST

Compound	% control (PKC-gamma_h; 3 µM) [%]	% control (TSSK2_h; 3 µM) [%]	IC50 ([1]; mean ± SD, minimum n = 3, read-out: IC50, TNFα production induced by FcγR cross-linking) [nM]	IC50 [2] [nM]	number of kinases inhibited by >80% of 256 kinases (panel of 256 kinases)	remaining activity at 3 µM (PKC-gamma_h; read-out: % control) [%]	remaining activity at 3 µM (TSSK2_h; read-out: % control) [%]	IC50 ([1]; Homo sapiens, Macrophage, mean ± SD, minimum n = 3, read-out: IC50, TNFα production induced by FcγR cross-linking) [nM]	IC50 ([1]; Homo sapiens, Macrophage FcγR, curve shown in figure, read-out: IC50 printed in Fig 3A panel) [nM]	IC50 ([2]; Homo sapiens, Neutrophil) [nM]	Gini score (panel of 256 kinases; calculated from activity in the kinase panel at 3 μM)
COc1cc(Nc2ncc(F)c(Nc3ccc4c(n3)NC(=O)C(C)(C)O4)n2)cc(OC)c1OC [R406, reference compound]	16	96	290 ± 160	1040 ± 450	75						
c1cc(CC2CCOCC2)n2nc(Nc3ccc4c(NC5CCOCC5)n[nH]c4c3)nc2c1 [CC-509, [3-(2H-3,4,5,6-tetrahydropyran-4-ylamino)(1H-indazol-6-yl)][5-(2H-3,4,5,6-tetrahydropyran-4-ylmethyl)(2H-1,2,4-triazolo[1,5-a]pyridin-2-yl)]amine]					27	45	93	170 ± 120	110	3270 ± 1270	0.53
